Experimental data taken from patent publication US8778966B2, “Quinolinone derivatives as PARP and tank inhibitors” (Janssen Pharmaceutica, NV, priority 2007, dated 2014).

Assays:
TANK-2 enzyme = target: T1, TANK-2 enzyme (Homo sapiens, UniProt Q9H2K2); assay: In vitro Scintillation Proximity Assay (SPA) for TANK-2 inhibitory activity; type: biochemical; settings: read-out: in vitro SPA assay TANK-2 pIC50 (converted)
T1 construct: made in house
T1 sequence (Q9H2K2 1-1166): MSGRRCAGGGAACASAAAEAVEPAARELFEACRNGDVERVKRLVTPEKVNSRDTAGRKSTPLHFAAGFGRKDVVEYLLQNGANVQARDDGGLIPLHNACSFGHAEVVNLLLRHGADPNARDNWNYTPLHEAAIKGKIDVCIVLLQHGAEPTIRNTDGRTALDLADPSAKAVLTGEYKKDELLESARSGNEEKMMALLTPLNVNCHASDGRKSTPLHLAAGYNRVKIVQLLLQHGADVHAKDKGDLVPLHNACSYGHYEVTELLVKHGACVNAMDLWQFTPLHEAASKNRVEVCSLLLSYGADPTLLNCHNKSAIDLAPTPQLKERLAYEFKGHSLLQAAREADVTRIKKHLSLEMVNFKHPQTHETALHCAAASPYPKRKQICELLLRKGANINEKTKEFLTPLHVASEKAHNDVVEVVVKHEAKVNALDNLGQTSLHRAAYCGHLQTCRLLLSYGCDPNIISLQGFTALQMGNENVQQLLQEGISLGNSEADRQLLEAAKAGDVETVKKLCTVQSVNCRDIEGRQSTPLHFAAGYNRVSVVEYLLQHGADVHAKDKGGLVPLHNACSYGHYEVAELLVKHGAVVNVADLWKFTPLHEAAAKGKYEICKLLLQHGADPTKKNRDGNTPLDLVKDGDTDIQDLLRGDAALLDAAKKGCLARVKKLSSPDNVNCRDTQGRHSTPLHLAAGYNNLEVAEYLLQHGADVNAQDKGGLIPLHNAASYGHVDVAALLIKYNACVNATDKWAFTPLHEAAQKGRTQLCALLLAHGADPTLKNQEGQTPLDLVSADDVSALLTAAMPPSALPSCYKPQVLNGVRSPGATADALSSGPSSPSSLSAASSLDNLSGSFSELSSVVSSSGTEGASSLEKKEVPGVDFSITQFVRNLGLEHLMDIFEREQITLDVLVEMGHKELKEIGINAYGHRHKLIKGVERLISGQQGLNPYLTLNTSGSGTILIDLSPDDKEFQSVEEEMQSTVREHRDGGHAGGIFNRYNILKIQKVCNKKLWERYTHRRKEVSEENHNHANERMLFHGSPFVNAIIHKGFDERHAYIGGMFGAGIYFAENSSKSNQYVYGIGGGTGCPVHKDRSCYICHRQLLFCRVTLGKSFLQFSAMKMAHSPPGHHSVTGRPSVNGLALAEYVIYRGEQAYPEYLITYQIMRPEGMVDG
In short: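 TANK-2 (8 μg/ml final) auto-poly(ADP-ribosyl)ation with [3H]-NAD+/NAD donor was run in Ni flash plates in Tris/HCl pH 7.4 buffer with DTT and MgCl2, 120 min at room temperature, then stopped with excess NAD and scintillation-counted. Blank-corrected cpm was expressed as % of enzyme control, and IC50 was linearly interpolated and reported as pIC50.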

PC3 cells = assay: EB1 Comet (microtubule disruption) assay; type: cell-based, human; settings: 1 hour treatment; for minimal effective concentration: Homo sapiens, PC-3, 1 h, read-out: EB1 pLAC (converted)
In short: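 PC3 human prostate cancer cells exposed to compound for 1 h at 37 °C (0.6% DMSO final), methanol-fixed, immunostained for Eb1 and imaged at 20×. Value is the lowest active concentration (LAC): the concentration at which Eb1 foci are absent in at least 50% of treated cells.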

Row | SMILES | IC50 (TANK-2 enzyme) [nM] | minimal effective concentration (PC3 cells) [µM] | EB1 pLAC (PC3 cells)
1 | Cc1cc2ccc(C(C)(C#N)C3CCc4ccc(Br)cc43)cc2[nH]c1=O (stereo not drawn) [Compound 249] | 2510 | 0.178 | –
2 | Cc1cc2ccc(C(C)(C#N)C3CCc4ccc(C#N)cc43)cc2[nH]c1=O (stereo not drawn) [Compound 250] | 398 | 0.316 | –
3 | C=C(C)c1cccc(CC(C)(C#N)c2ccc3cc(CC)c(=O)[nH]c3c2)c1 (stereo not drawn) [Compound 254] | 251 | 1 | –
4 | Cc1cc2ccc(C(C)(C#N)CCCCOc3ccccc3)cc2[nH]c1=O (stereo not drawn) [Compound 272] | 501 | 1 | –
5 | Cc1cc2ccc(C(C)(C#N)Cc3cc(F)cc(F)c3)cc2[nH]c1=O (stereo not drawn) [Compound 282] | 794 | 3.16 | –
6 | CCc1cc2ccc(C(C)(C#N)CN(C)CCc3cn(C)c4ccccc34)cc2[nH]c1=O (stereo not drawn) [Compound 303] | 126 | 10 | –
7 | Cc1cc2ccc(C(C)(C#N)Cc3cccc(Oc4ccccn4)c3)cc2[nH]c1=O (stereo not drawn) [Compound 304] | 1000 | 0.1 | –
8 | CCc1cc2ccc(C(C)(C#N)Cc3ccnc(C#N)c3)cc2[nH]c1=O (stereo not drawn) [Compound 324] | 20 | 1 | –
9 | CCc1cc2ccc(C(C)(C#N)Cc3ccc(C(F)(F)F)nc3C)cc2[nH]c1=O (stereo not drawn) [Compound 340] | 794 | 10 | –
10 | CCc1cc2ccc(C(C)(C#N)CCOc3ncc(Br)cn3)cc2[nH]c1=O (stereo not drawn) [Compound 349] | 200 | 1 | –
11 | CCc1cc2ccc(C(C)(C#N)CN3CCc4ccccc4C3)cc2[nH]c1=O (stereo not drawn) [Compound 376] | 200 | 3.16 | –
12 | CCc1cc2ccc([C@](C)(C#N)C[C@H]3Cc4ccccc4O3)cc2[nH]c1=O [Compound 397] | 100 | 3.16 | –
13 | CCc1cc2ccc(C(C)(C#N)CC3Oc4ccccc4O3)cc2[nH]c1=O (stereo not drawn) [Compound 398] | 501 | 3.16 | –

Continued, in another order:

Row | IC50 (TANK-2 enzyme) [nM] | SMILES | minimal effective concentration (PC3 cells) [µM] | EB1 pLAC (PC3 cells)
14 | 100 | CCc1cc2ccc(C(C#N)(CC)Cc3cccc(C#N)c3)cc2[nH]c1=O (stereo not drawn) [Compound 265] | 1 | –
15 | 25.1 | CCc1cc2ccc(C(C)(C#N)Cc3cc(F)cc(C#N)c3)cc2[nH]c1=O (stereo not drawn) [Compound 266] | 0.316 | –
16 | 316 | CCc1cc2ccc(C(C#N)(CC)Cc3cccc(F)c3)cc2[nH]c1=O (stereo not drawn) [Compound 270] | 3.16 | –
17 | 501 | CCc1cc2ccc(C(C)(C#N)Cc3cc(C)cc(Br)c3)cc2[nH]c1=O (stereo not drawn) [Compound 284] | 0.316 | –
18 | 1000 | CCc1cc2ccc(C(C#N)(CC)Cc3cccc(OC)c3)cc2[nH]c1=O (stereo not drawn) [Compound 287] | 0.316 | –
19 | 100 | CCOc1cc(N(C)C)nc(CC(C)(C#N)c2ccc3cc(CC)c(=O)[nH]c3c2)n1 (stereo not drawn) [Compound 312] | 1 | –
20 | 100 | CCOc1cc(C#N)nc(CC(C)(C#N)c2ccc3cc(CC)c(=O)[nH]c3c2)n1 (stereo not drawn) [Compound 315] | 1 | –
21 | 126 | CCc1cc2ccc(C(C#N)(CC)Cc3nc(C#N)cc(OC)n3)cc2[nH]c1=O (stereo not drawn) [Compound 316] | 3.16 | –
22 | 158 | CCc1cc2ccc(C(C#N)(CC)Cc3nc(OC)cc(OC)n3)cc2[nH]c1=O (stereo not drawn) [Compound 321] | 0.316 | –
23 | 398 | CCc1cc2ccc(C(C)(C#N)Cc3cc(C)nc(Cl)c3)cc2[nH]c1=O (stereo not drawn) [Compound 326] | 3.16 | –
24 | 79.4 | CCc1cc2ccc(C(C)(C#N)Cc3cccc(F)n3)cc2[nH]c1=O (stereo not drawn) [Compound 331] | 0.1 | –
25 | 79.4 | CCc1cc2ccc([C@](C)(C#N)Cc3cc(F)cc(F)c3)cc2[nH]c1=O [Compound 333] | 10 | –
26 | 79.4 | CCc1cc2ccc(C(C)(C#N)Cc3ccnc(Cl)c3)cc2[nH]c1=O (stereo not drawn) [Compound 341] | 10 | –
27 | 39.8 | CCc1cc2ccc(C(C#N)(CC)Cc3cccc(C#N)n3)cc2[nH]c1=O (stereo not drawn) [Compound 342] | 3.16 | –
28 | 200 | CCc1cc2ccc(C(C)(C#N)CCOc3ccnc(SC)n3)cc2[nH]c1=O (stereo not drawn) [Compound 348] | 10 | –
29 | 126 | CCc1cc2ccc(C(C)(C#N)Cc3nc(C)cc(OC)n3)cc2[nH]c1=O (stereo not drawn) [Compound 371] | 0.316 | –
30 | 126 | CCc1cc2ccc(C(C)(C#N)Cc3cc(F)cc(F)c3)cc2[nH]c1=O (stereo not drawn) [Compound 402] | – | 6.5
